Source: article PMC8510097 (Molecules, 2021)
Read-outs that look alike come from different tables or passages of the source.

Experiments:
SARS-CoV-2 3CLpro [1] = biological target: T1, SARS-CoV-2 3CLpro (Severe acute respiratory syndrome coronavirus 2, UniProt P0DTD1); test: SARS-CoV-2 3CLpro inhibition assay, continuous fluorescence with FRET substrate UIVT3; assay type: biochemical
[2] = test system: SARS-CoV-2 strain JPN/TY/WK-521; test: Antiviral assay, quantitative VeroE6 cell-based assay with RNA-qPCR
SARS-CoV 3CL protease = conditions: Figure 1; read-out: IC50 (SARS-CoV 3C); cited from earlier work
SARS-CoV = conditions: cited from earlier work
SARS-CoV-2^wk-521 = test system: SARS-CoV-2^wk-521; parameters: method as in PMID 32820005, PMID 33510133; conditions: VeroE6 cells; cited from earlier work
[3] = test system: SARS-CoV-2 strain JPN/TY/WK-521; parameters: method as in PMID 32820005, PMID 33510133; conditions: VeroE6 cells; read-out: antiviral EC50; cited from earlier work
SARS-CoV-2 3CLpro [4] = biological target: T1, SARS-CoV-2 3CLpro; test: Mass analysis of enzyme-inhibitor complex (LC-MS); conditions: 2 μM protein, 20 μM compound, ten minutes
Description: The enzyme inhibitory activity (IC50 values) of synthetic active esters was assessed using a continuous fluorescence assay and the FRET-based substrate UIVT3 (HiLyteFluor488^TM-[…] -QXL520-NH2 (HPLC > 90%); Anaspec, Fremont, CA, USA) described by us previously. The antiviral activity (EC50 value) of compounds was evaluated using quantitative VeroE6 cell-based assay with RNA-qPCR as described by us recently. […] We presume that the mode of inhibition involves covalent bond formation with catalytic Cys145 as observed in our previous X-ray structural analysis of inhibitor-bound SARS-CoV-2 3CL protease as well as mass spectral analysis. The irreversible enzyme acylation of the NSAIDs-based inhibitor was examined by using […]. Authentic SARS-CoV-2 3CLpro was incubated with inhibitor 8a and then analyzed with untreated enzyme. As expected, we were able to see a signal for enzyme-bound compound 8a on the LC–MS spectrum that corresponds to acylation of 3CL protease with a mass shift of +212 Daltons.
Purified SARS-CoV-2 3CLpro was injected onto a Superdex™ 200 Increase 10/300 GL gel filtration column (GE Healthcare) equilibrated in 20 mM HEPES pH 7.5. […]
Positive ion spectra obtained were analyzed using Agilent MassHunter Qualitative Analysis Software B.06 and the deconvolution spectra were generated using Agilent MassHunter BioConfirm software B.06.

SARS-CoV-2 = test: Antiviral CPE protection assay in VeroE6 cells in the presence of P-glycoprotein inhibitor CP-100356 (CellTiter-Glo); assay type: cell-based; conditions: 2µM CP-100356, MOI 0.01, 72 hours
[5] = 10 min pre-incubation of enzyme with compound, read-out: SARS CoV-2 3CLpro IC50
[6] = Severe acute respiratory syndrome coronavirus 2, Vero C1008, 72 h, VeroE6 cells, RNA-qPCR, MOI 0.05, 72 h, read-out: SARS-CoV-2 EC50
[7] = VeroE6 cells, RNA-qPCR, MOI 0.05, 72 h, read-out: SARS-CoV-2 EC50
[8] = values given in nM, read-out: SARS-CoV-2 3CLpro enzyme IC50

Compound	IC50 (SARS-CoV-2 3CLpro [1]; [5])	EC50 [2, 6]	also measured
CC(=O)Oc1ccccc1C(=O)Oc1cncc(Cl)c1 [C00001]	360 nM		
COc1ccc2cc([C@H](C)C(=O)Oc3cncc(Cl)c3)ccc2c1 [C00002]	670 nM	> 100 µM	
COc1ccc2cc([C@@H](C)C(=O)Oc3cncc(Cl)c3)ccc2c1 [C00003]	160 nM	> 100 µM	
CC(C)Cc1ccc(C(C)C(=O)Oc2cncc(Cl)c2)cc1 (stereo not shown) [C00004]	810 nM	> 100 µM	
COc1ccc2c(c1)c(CC(=O)Oc1cncc(Cl)c1)c(C)n2C(=O)c1ccc(Cl)cc1 [C00005]	5320 nM		EC50 [2, 7]: 30.2 µM
O=C(Oc1cncc(Cl)c1)c1ccccc1O [C00006]		> 100 µM	
O=C(Oc1ccccc1C(=O)Oc1cncc(Cl)c1)c1ccccc1O [C00007]	17100 nM		EC50 [2, 7]: 63.7 µM
Cc1cccc(C(=O)Oc2cncc(Cl)c2)c1O [C00008]	650 nM	> 100 µM	
Cc1cccc(C(=O)Oc2c(C)cccc2C(=O)Oc2cncc(Cl)c2)c1O [C00009]	4900 nM		EC50 [2, 7]: 23.8 µM
Cc1ccc(C(=O)Oc2cncc(Cl)c2)c(O)c1 [C00010]	540 nM	> 100 µM	
Cc1ccc(C(=O)Oc2cc(C)ccc2C(=O)Oc2cncc(Cl)c2)c(O)c1 [C00011]	1400 nM	> 100 µM	
Cc1ccc(O)c(C(=O)Oc2cncc(Cl)c2)c1 [C00012]	390 nM		EC50 [2, 7]: 46.3 µM
Cc1ccc(O)c(C(=O)Oc2ccc(C)cc2C(=O)Oc2cncc(Cl)c2)c1 [C00013]	740 nM		EC50 [2, 7]: 48.3 µM
Cc1ccc(O)c(C(=O)Oc2ccc(C)cc2C(=O)Oc2ccc(C)cc2C(=O)Oc2cncc(Cl)c2)c1 [C00014]	3730 nM	> 100 µM	
Cc1cccc(O)c1C(=O)Oc1cncc(Cl)c1 [C00015]	4260 nM	> 100 µM	
Cc1cccc(O)c1C(=O)Oc1cccc(C)c1C(=O)Oc1cncc(Cl)c1 [C00016]	15400 nM	> 100 µM	
O=C(Oc1cncc(Cl)c1)c1c(O)cccc1F [C00017]	108000 nM	> 100 µM	
CC(=O)Nc1cccc(C(=O)Oc2cncc(Cl)c2)c1 [C00018]	1110 nM	> 100 µM	

Compound	IC50 (SARS-CoV-2 3CLpro [1]; [5])	EC50 [2, 6]	also measured
CC(=O)Nc1cc(C(=O)Oc2cncc(Cl)c2)ccc1F [C00019]	1510 nM	> 100 µM	
O=C(On1nnc2ccccc21)c1ccc2[nH]ccc2c1 [Compound 1]			IC50 (SARS-CoV 3CL protease): 0.2 µM; antiviral activity (in words) (SARS-CoV): did not show antiviral activity
O=C(Oc1cncc(Cl)c1)c1cccs1 [Compound 2]			IC50 (SARS-CoV 3CL protease): 0.5 µM; antiviral activity (in words) (SARS-CoV): did not show antiviral activity
O=C(Oc1cncc(Cl)c1)c1cccc2[nH]ccc12 [Compound 3]			activity in immunocytochemistry assay (in words) (SARS-CoV-2^wk-521): blocked the infectivity and cytopathic effect
O=C(Oc1cncc(Cl)c1)c1cccc2c1CCN2 [Compound 4]			EC50 [3]: 15 µM; activity in immunocytochemistry assay (in words) (SARS-CoV-2^wk-521): potent enzyme inhibitory and antiviral activity
CCC(CC)COC(=O)[C@H](C)N[P@](=O)(OC[C@H]1O[C@@](C#N)(c2ccc3c(N)ncnn23)[C@H](O)[C@@H]1O)Oc1ccccc1 [Compound 5, remdesivir, reference compound]			EC50 ([2]; Severe acute respiratory syndrome coronavirus 2, Vero C1008, read-out: antiviral EC50 (table footnote a, reference compounds), VeroE6 cells): 2.4 µM
COc1ccc2cc([C@H](C)C(=O)Oc3cncc(Cl)c3)ccc2c1 [Compound 8a, 5-chloropyridin-3-yl (S)-2-(6-methoxynaphthalen-2-yl)propanoate]			IC50 (SARS-CoV-2 3CLpro [1]; [8]): 670 nM; mass shift of 3CL protease on acylation by inhibitor (SARS-CoV-2 3CLpro [4]): +212 Daltons
COc1ccc2cc([C@@H](C)C(=O)Oc3cncc(Cl)c3)ccc2c1 [Compound 9a, 5-chloropyridin-3-yl (R)-2-(6-methoxynaphthalen-2-yl)propanoate]			fold improvement of enzyme IC50 over the (S)-naproxen ester 8a (SARS-CoV-2 3CLpro [1]): over 4 fold; IC50 (SARS-CoV-2 3CLpro [1]; [8]): 160 nM; antiviral activity in the presence of P-glycoprotein inhibitor CP-100356 (SARS-CoV-2): none of these compounds exhibited any significant antiviral activity
CC(C)Cc1ccc(C(C)C(=O)Oc2cncc(Cl)c2)cc1 (stereo not shown) [Compound 10a, 5-chloropyridin-3-yl 2-(4-isobutylphenyl)propanoate]			IC50 (SARS-CoV-2 3CLpro [1]; [8]): 810 nM
COc1ccc2c(c1)c(CC(=O)Oc1cncc(Cl)c1)c(C)n2C(=O)c1ccc(Cl)cc1 [Compound 11a, 5-chloropyridin-3-yl 2-(1-(4-chlorobenzoyl)-5-methoxy-2-methyl-1H-indol-3-yl)acetate]			enzyme inhibitory activity (in words) (SARS-CoV-2 3CLpro [1]): significant reduction in enzyme activity; EC50 ([2]; Severe acute respiratory syndrome coronavirus 2, Vero C1008, 72 h, read-out: SARS-CoV-2 EC50, VeroE6 cells, RNA-qPCR, MOI 0.05, 72 h): 30 µM; antiviral activity in the presence of P-glycoprotein inhibitor CP-100356 (SARS-CoV-2): none of these compounds exhibited any significant antiviral activity
O=C(Oc1cncc(Cl)c1)c1ccccc1O [Compound 12a, 5-chloropyridin-3-yl 2-hydroxybenzoate]	3470 nM		
O=C(Oc1ccccc1C(=O)Oc1cncc(Cl)c1)c1ccccc1O [Compound 12b, 5-chloropyridin-3-yl 2-((2-hydroxybenzoyl)oxy)benzoate]		64 µM	fold reduction in enzyme activity versus monoester 12a (SARS-CoV-2 3CLpro [1]): 5 fold
Cc1cccc(C(=O)Oc2cncc(Cl)c2)c1O [Compound 13a, 5-chloropyridin-3-yl 2-hydroxy-3-methylbenzoate]			IC50 (SARS-CoV-2 3CLpro [1]; [8]): 650 nM
Cc1cccc(C(=O)Oc2c(C)cccc2C(=O)Oc2cncc(Cl)c2)c1O [Compound 13b, 5-chloropyridin-3-yl 2-((2-hydroxy-3-methylbenzoyl)oxy)-3-methylbenzoate]	4900 nM	24 µM	
Cc1ccc(C(=O)Oc2cncc(Cl)c2)c(O)c1 [Compound 14a, 5-chloropyridin-3-yl 2-hydroxy-4-methylbenzoate]			antiviral activity in the presence of P-glycoprotein inhibitor CP-100356 (SARS-CoV-2): none of these compounds exhibited any significant antiviral activity
Cc1ccc(O)c(C(=O)Oc2cncc(Cl)c2)c1 [Compound 15a, 5-chloropyridin-3-yl 2-hydroxy-5-methylbenzoate]		24 to 64 µM	antiviral activity in the presence of P-glycoprotein inhibitor CP-100356 (SARS-CoV-2): none of these compounds exhibited any significant antiviral activity
CC(=O)Nc1cccc(C(=O)Oc2cncc(Cl)c2)c1 [Compound 18a, 5-chloropyridin-3-yl 3-acetamidobenzoate]			enzyme inhibitory activity (in words) (SARS-CoV-2 3CLpro [1]): low micromolar range
CC(=O)Nc1cc(C(=O)Oc2cncc(Cl)c2)ccc1F [Compound 19a, 5-chloropyridin-3-yl 3-acetamido-4-fluorobenzoate]			enzyme inhibitory activity (in words) (SARS-CoV-2 3CLpro [1]): low micromolar range
